Results taken from patent publication EP0981349B1, “5-ALPHA-PREGNAN-3-BETA-OL-20-ONE SULFATE FOR THE TREATMENT OF TUMOURS AND CNS DISEASES” (Wyeth, priority 1997, dated 1998).
Counter-ions that a name gives are not always drawn.

Legend:
progesterone receptors = molecular target: T1, progesterone receptors (Homo sapiens, UniProt P06401); assay: Stimulation of alkaline phosphatase enzyme activity in T47D cells (progestational activity)
T1 sequence (P06401 1-933): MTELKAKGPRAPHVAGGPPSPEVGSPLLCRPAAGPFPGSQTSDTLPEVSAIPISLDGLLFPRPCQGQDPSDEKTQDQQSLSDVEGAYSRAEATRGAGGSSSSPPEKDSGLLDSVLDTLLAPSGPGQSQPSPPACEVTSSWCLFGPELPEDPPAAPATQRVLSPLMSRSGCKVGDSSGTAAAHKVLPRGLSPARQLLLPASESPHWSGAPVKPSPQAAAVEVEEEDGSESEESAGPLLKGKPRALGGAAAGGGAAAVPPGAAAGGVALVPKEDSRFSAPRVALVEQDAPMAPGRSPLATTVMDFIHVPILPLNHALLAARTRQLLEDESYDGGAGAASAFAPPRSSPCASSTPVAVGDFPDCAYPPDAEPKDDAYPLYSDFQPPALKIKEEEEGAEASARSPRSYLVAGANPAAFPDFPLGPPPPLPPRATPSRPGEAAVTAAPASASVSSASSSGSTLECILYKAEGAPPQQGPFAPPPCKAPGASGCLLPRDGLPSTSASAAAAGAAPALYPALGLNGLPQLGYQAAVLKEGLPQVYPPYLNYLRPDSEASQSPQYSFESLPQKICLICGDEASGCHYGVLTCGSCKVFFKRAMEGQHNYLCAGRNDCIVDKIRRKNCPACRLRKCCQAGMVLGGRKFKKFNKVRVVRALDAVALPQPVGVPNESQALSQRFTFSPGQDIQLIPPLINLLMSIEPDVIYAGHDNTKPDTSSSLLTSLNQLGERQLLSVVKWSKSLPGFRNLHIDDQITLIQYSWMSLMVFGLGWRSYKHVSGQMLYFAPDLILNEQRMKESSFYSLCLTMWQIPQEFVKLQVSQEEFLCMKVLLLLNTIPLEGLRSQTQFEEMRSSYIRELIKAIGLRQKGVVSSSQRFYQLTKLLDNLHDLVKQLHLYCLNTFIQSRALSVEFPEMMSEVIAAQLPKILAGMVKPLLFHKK
Description: The progestational activity of a representative compound of this invention (5α-pregnan-3β-ol-20-one 3-sulfate ester sodium salt) was evaluated in an in vitro standard pharmacological test procedure.
In this test procedure, the progestational activity of a compound is quantified based on its stimulation of alkaline phosphatase enzyme activity in T47D cells, a human breast cancer cell line which expresses high levels of progesterone receptors. This is a well established test procedure in which both the progestin receptors and the response stimulated by activated progestin receptors are endogenous to the cells. Cells are pre-conditioned in low serum medium for one day and then treated with test compounds. Alkaline phosphatase activity is measured 24 hr after treatment.

calcium channel currents = assay: Whole cell recording of calcium currents from cultured hippocampal neurons; format: cell-based; details: 2 µM, p = 0.044
Description: (§1) Briefly, the following procedure was used.
(§2) Whole cell recording techniques were used to record calcium and potassium currents from cultured hippocampal neurons. The compounds to be evaluated were made fresh each day in a 400 µM ethanol stock solution. The test compounds were diluted in saline to obtain a final concentration of 2 µM. The amplitude of calcium or potassium currents in control, test compound, and washout solutions was measured from at least 10 current traces for each condition. To compensate for rundown of the calcium current with time, control and washout currents were averaged. The current amplitude with drug was divided by the averaged control and washout current to determine the percent change. The means, standard deviations and errors for each test compound were calculated and significance from control was determined using the paired T-Test.

[1] = tested on: potassium channel currents; assay: Whole cell recording of potassium currents from cultured hippocampal neurons; format: cell-based; details: 2 µM, p = 0.0006
Description: as §1, §2

Row | Structure (SMILES) | EC50 (progesterone receptors) | Calcium channel currents decrease versus control (calcium channel currents) | increased potassium channel currents versus control [1] | fold induction of alkaline phosphatase (progesterone receptors; t47d cells, 24 h)
1 | CC(=O)[C@H]1CC[C@H]2[C@@H]3CC[C@H]4C[C@@H](OS(=O)(=O)O)CC[C@]4(C)[C@H]3CC[C@]12C [5α-pregnan-3β-ol-20-one 3-sulfate ester sodium salt] | 5 µM | 4.64 ± 1.64% | 21.76 ± 2.40% | 
2 | CC(=O)O[C@]1(C(C)=O)CC[C@H]2[C@@H]3C[C@H](C)C4=CC(=O)CC[C@]4(C)[C@H]3CC[C@@]21C [medroxyprogesterone acetate, reference compound] |  |  |  | 30 - 60 fold
